Measurements: publication PMC9871955, “High-throughput screening of SARS-CoV-2 main and papain-like protease inhibitors” (Protein & Cell, 2022)
Read-outs that look alike come from different tables or passages of the source.

Experiments:
SARS-CoV-2 M^pro = SARS-CoV-2 M^pro (Severe acute respiratory syndrome coronavirus 2, UniProt P0DTD1); test: biochemical
[1] = Table S2, PL^pro inhibitors, same inhibitor concentration
[2] = Table S1, M^pro inhibitors, same inhibitor concentration (10 µg/mL)
[3] = read-out: IC50 / inhibitory activity against M^pro
[4] = Table S3, representative dual inhibitors, read-out: IC50 for M^pro
[5] = Table S1, M^pro inhibitors, 40 nmol/L enzyme, 20 µmol/L substrate, read-out: IC50

For `CCC(C(=O)NCc1ccco1)n1c(Cc2c(Cl)cccc2Cl)nc2ccccc21` (stereo not shown) [CD3226-D010], the “Cytotoxicity activity (%)” value (Vero cells; [1]) was -22.39%.

`CC(C(=O)NCc1ccco1)n1c(Cc2c(Cl)cccc2Cl)nc2ccccc21` (stereo not shown) [CD3531-C011] was tested, and the “Cytotoxicity activity (%)” value (Vero cells; [1]) was -14.28%.

`COc1ccc(CN2C(=O)NC(=O)/C(=C\c3ccco3)C2=O)cc1` [CDE0972-G011] gave an IC50 (SARS-CoV-2 M^pro; read-out: IC50 (μM) at S/KM 1) of 2.86 ± 0.53 µM, an IC50 (SARS-CoV-2 M^pro; read-out: IC50 (μM) at S/KM 1/2) of 2.17 ± 0.2 µM and an IC50 (SARS-CoV-2 M^pro; read-out: IC50 (μM) at S/KM 2) of 3.5 ± 0.42 µM. For the same compound, the “Cytotoxicity activity (%)” value (Vero cells; [2]) was -7.84%.

With `O=C(NCc1n[nH]c(=S)n1-c1ccc(Br)cc1)c1ccc(Cl)cc1Cl` [JK0108-D008] the IC50 (SARS-CoV-2 M^pro; IC50 (μM) at S/KM 1) was 4.37 ± 0.84 µM, the IC50 (SARS-CoV-2 M^pro; IC50 (μM) at S/KM 2) was 5.83 ± 1.68 µM and the IC50 (SARS-CoV-2 M^pro; [3]) was 0.5 µM. The “Cytotoxicity activity (%)” value (Vero cells; [1]) was -8.62%.

Compound `CCOc1cc(C(=O)NCc2n[nH]c(=S)n2-c2ccc(Br)cc2)cc(OCC)c1OCC` [JK0109-B004] has an IC50 (SARS-CoV-2 M^pro; IC50 (μM) at S/KM 1) of 1.62 ± 0.24 µM, an IC50 (SARS-CoV-2 M^pro; IC50 (μM) at S/KM 1/2) of 1.01 ± 0.25 µM and an IC50 (SARS-CoV-2 M^pro; IC50 (μM) at S/KM 2) of 2.17 ± 0.27 µM. The IC50 (SARS-CoV-2 M^pro; [4]) was 9.7 ± 0.1 µM and the “Cytotoxicity activity (%)” value (Vero cells; [1]) was -7.5%.

`COc1ccc(-n2c(CNC(=O)COc3ccc(Cl)cc3Cl)n[nH]c2=S)cc1` [JK0109-B011] gave an IC50 (SARS-CoV-2 M^pro; IC50 (μM) at S/KM 1) of 1.53 ± 0.58 µM, an IC50 (SARS-CoV-2 M^pro; IC50 (μM) at S/KM 1/2) of 1.33 ± 0.26 µM and an IC50 (SARS-CoV-2 M^pro; [4]) of 21.8 ± 0.3 µM. For the same compound, the “Cytotoxicity activity (%)” value (Vero cells; [1]) was -7.31%.

For `COc1ccc(-n2c(S)nnc2CNC(=O)c2cc(OC)c(OC)c(OC)c2)cc1` [JK0109-C011], the IC50 (SARS-CoV-2 M^pro; IC50 (μM) at S/KM 1) was 16.1 ± 3.07 µM, the IC50 (SARS-CoV-2 M^pro; IC50 (μM) at S/KM 1/2) was 2.3 ± 0.96 µM and the IC50 (SARS-CoV-2 M^pro; [4]) was 42.8 ± 1.7 µM. For the same compound, the “Cytotoxicity activity (%)” value (Vero cells; [1]) was -9.42%.

With `O=C(COc1ccc(Cl)cc1)NCc1n[nH]c(=S)n1-c1ccc(Br)cc1` [JK0109-H005] the “IC50 (μM) at S/KM 1” value (SARS-CoV-2 M^pro) was 4.17 ± 1.29 µM, the IC50 (SARS-CoV-2 M^pro; IC50 (μM) at S/KM 1/2) was 1.33 ± 0.28 µM and the IC50 (SARS-CoV-2 M^pro; IC50 (μM) at S/KM 2) was 3.36 ± 0.47 µM. The IC50 (SARS-CoV-2 M^pro; [4]) was 4.2 ± 0.7 µM and the “Cytotoxicity activity (%)” value (Vero cells; [1]) was -4.08%.

`O=c1sc2ccccc2n1Cc1n[nH]c(=S)n1-c1ccccc1` [JK0946-F007] was tested, and the IC50 (SARS-CoV-2 M^pro; IC50 (μM) at S/KM 1) was 9.67 ± 3.64 µM, the IC50 (SARS-CoV-2 M^pro; IC50 (μM) at S/KM 1/2) was 3.56 ± 0.62 µM and the IC50 (SARS-CoV-2 M^pro; IC50 (μM) at S/KM 2) was 8.97 ± 2.32 µM. The IC50 (SARS-CoV-2 M^pro; [4]) was 8.7 ± 0.9 µM, the IC50 (SARS-CoV-2 M^pro; [3]) was 4.2 ± 0.6 µM and the “Cytotoxicity activity (%)” value (Vero cells; [1]) was -4.63%.

In the case of `COc1ccc(-n2c(S)nnc2CNc2ccc(C)cc2)cc1` [RUS0105-C005], the IC50 (SARS-CoV-2 M^pro; [5]) is reported as 0.478 ± 0.009 µM and the “Cytotoxicity activity (%)” value (Vero cells; [2]) is reported as 5.87%.

`O=C1NC(=O)C(=Cc2ccc(-c3cccc(Cl)c3)o2)C(=O)N1` [RUS0245-E010] was tested, and the IC50 (SARS-CoV-2 M^pro; IC50 (μM) at S/KM 1) was 0.25 ± 0.04 µM, the IC50 (SARS-CoV-2 M^pro; IC50 (μM) at S/KM 1/2) was 0.34 ± 0.04 µM and the IC50 (SARS-CoV-2 M^pro; IC50 (μM) at S/KM 2) was 0.34 ± 0.09 µM. The IC50 (SARS-CoV-2 M^pro; [5]) was 0.196 ± 0.009 µM and the “Cytotoxicity activity (%)” value (Vero cells; [2]) was -8.14%.

In the case of `O=C(Oc1cncc(Cl)c1)c1sccc1Cl` [WNN2048-F004], the “dependence of apparent IC50 on substrate concentration” value (SARS-CoV-2 M^pro) is reported as “consistent IC50 that is not affected by substrate concentration”, the IC50 (SARS-CoV-2 M^pro; IC50 (μM) at S/KM 1) is reported as 0.35 ± 0.11 µM and the IC50 (SARS-CoV-2 M^pro; IC50 (μM) at S/KM 2) is reported as 0.33 ± 0.07 µM. For the same compound, the IC50 (SARS-CoV-2 M^pro; [5]) was 0.131 ± 0.011 µM, the IC50 (SARS-CoV-2 M^pro; running text and Figure 4A, read-out: IC50 against M^pro) was 0.103 ± 0.0052 µM and the “Cytotoxicity activity (%)” value (Vero cells; [2]) was 6.16%. The cytotoxicity effect (Vero cells; in words) was “without cytotoxicity effect”.

`Cc1ccc(NCc2n[nH]c(=S)n2-c2ccccc2)cc1` [WNN2867-E005] was tested, and the IC50 (SARS-CoV-2 M^pro; [5]) was 0.466 ± 0.101 µM and the “Cytotoxicity activity (%)” value (Vero cells; [2]) was -6.94%.

Work on `O=C1NC(=O)N(Cc2ccccc2)C(=O)C1=Cc1ccco1` [WNN3797-H008] yielded an IC50 (SARS-CoV-2 M^pro; IC50 (μM) at S/KM 1/2) of 0.67 ± 0.28 µM, an IC50 (SARS-CoV-2 M^pro; IC50 (μM) at S/KM 2) of 0.55 ± 0.02 µM and an IC50 (SARS-CoV-2 M^pro; [5]) of 0.172 µM. For the same compound, the “Cytotoxicity activity (%)” value (Vero cells; [2]) was -7.75%.

`O=C1NC(=O)C(=Cc2ccc(-c3cccc(C(F)(F)F)c3)o2)C(=O)N1` [WNN3953-B007] was tested, and the IC50 (SARS-CoV-2 M^pro; IC50 (μM) at S/KM 1) was 0.77 ± 0.14 µM, the IC50 (SARS-CoV-2 M^pro; IC50 (μM) at S/KM 2) was 0.53 ± 0.1 µM and the IC50 (SARS-CoV-2 M^pro; [5]) was 0.16 ± 0.009 µM. For the same compound, the “Cytotoxicity activity (%)” value (Vero cells; [2]) was 13.01%.

In the case of `O=C1NC(=O)C(=Cc2ccc(-c3cccc(Cl)c3Cl)o2)C(=O)N1` [WNN3989-H007], the IC50 (SARS-CoV-2 M^pro; IC50 (μM) at S/KM 1/2) is reported as 0.11 ± 0.01 µM, the IC50 (SARS-CoV-2 M^pro; [5]) is reported as 0.552 ± 0.12 µM and the “Cytotoxicity activity (%)” value (Vero cells; [2]) is reported as -4.89%.
